Key:
Purified CYP3A4 = Purified CYP3A4 (Homo sapiens, UniProt P08684, S18F); details: for Soret peak / Soret trough: human, 20 µM, pH 7.4
CYP3A4 baculosomes = CYP3A4 baculosomes (Homo sapiens, UniProt P08684); experiment: Saturation kinetics of metabolism by CYP3A4; format: in vitro ADME

Compound | Binding mode (Purified CYP3A4) | Soret peak (Purified CYP3A4) [nm] | Soret trough (Purified CYP3A4) [nm] | rate of benzylic hydroxylation compared to O-demethylation of compound 5 (CYP3A4 baculosomes; type II binding compounds, relative to aromatic hydroxylation in ring A) | kcat smaller than type I binding compound 2 (CYP3A4 baculosomes; compared with compound 2 of series 1) | kcat larger than type I binding compound 10 (CYP3A4 baculosomes; compared with compound 10 of series 3) [times] | kcat higher than type I binding compounds 3 and 11 (CYP3A4 baculosomes; compared with compounds 3 and 11)
CN(C)c1ccc(NC(=O)c2cc(-c3ccccn3)nc3ccccc23)cc1 [Compound 10] | Type I | 386 | 416 | – | – | – | –
O=C(Nc1ccccc1)c1cc(-c2cnccn2)nc2ccccc12 [Compound 15] | Type II | 427 | 397 | – | – | – | –
COc1ccc(NC(=O)c2cc(-c3cnccn3)nc3ccccc23)cc1 [Compound 13] | Type II | 423 | 396 | – | – | – | –
O=C(Nc1ccccc1)c1cc(-c2ccccc2)nc2ccccc12 [Compound 3] | Type I | 392 | 417 | – | – | – | –
O=C(Nc1ccccc1)c1cc(-c2ccncn2)nc2ccccc12 [Compound 19] | Type II | 424 | 390 | – | – | – | –
COc1ccc(NC(=O)c2cc(-c3ccncn3)nc3ccccc23)cc1 [Compound 17] | Type II | 425 | 391 | – | – | – | –
CN(C)c1ccc(NC(=O)c2cc(-c3ccncn3)nc3ccccc23)cc1 [Compound 18] | Type II | 422 | 392 | – | – | – | –
COc1ccc(NC(=O)c2cc(-c3ccccn3)nc3ccccc23)cc1 [Compound 9] | Type I | 388 | 417 | – | – | – | –
CN(C)c1ccc(NC(=O)c2cc(-c3cnccn3)nc3ccccc23)cc1 [Compound 14] | Type II | 425 | 393 | – | – | – | –
O=C(Nc1ccccc1)c1cc(-c2ccccn2)nc2ccccc12 [Compound 11] | Type I | 389 | 418 | – | – | – | –

Continued, values first:

Binding mode (Purified CYP3A4) | Soret peak (Purified CYP3A4) [nm] | Soret trough (Purified CYP3A4) [nm] | rate of benzylic hydroxylation compared to O-demethylation of compound 5 (CYP3A4 baculosomes; type II binding compounds, relative to aromatic hydroxylation in ring A) | kcat smaller than type I binding compound 2 (CYP3A4 baculosomes; compared with compound 2 of series 1) | kcat larger than type I binding compound 10 (CYP3A4 baculosomes; compared with compound 10 of series 3) [times] | kcat higher than type I binding compounds 3 and 11 (CYP3A4 baculosomes; compared with compounds 3 and 11) | Compound
Type II | 428 | 392 | about three fold faster | – | – | – | Cc1ccc(NC(=O)c2cc(-c3ccncc3)nc3ccccc23)cc1 [Compound 8]
Type II ^b | 427 | 392 | – | more than 2 fold | 1.2 | – | CN(C)c1ccc(NC(=O)c2cc(-c3ccncc3)nc3ccccc23)cc1 [Compound 6]
Type II | 427 | 394 | – | – | – | about 1.5 times | O=C(Nc1ccccc1)c1cc(-c2ccncc2)nc2ccccc12 [Compound 7]
Type I | 385 | 416 | – | – | – | – | CN(C)c1ccc(NC(=O)c2cc(-c3ccccc3)nc3ccccc23)cc1 [Compound 2]
Type II | 422 | 391 | – | – | – | – | Cc1ccc(NC(=O)c2cc(-c3cnccn3)nc3ccccc23)cc1 [Compound 16]
Type II | 425 | 390 | – | – | – | – | Cc1ccc(NC(=O)c2cc(-c3ccncn3)nc3ccccc23)cc1 [Compound 20]
Type I | 393 | 417 | – | – | – | – | Cc1ccc(NC(=O)c2cc(-c3ccccc3)nc3ccccc23)cc1 [Compound 4]
Type I | 391 | 416 | – | – | – | – | Cc1ccc(NC(=O)c2cc(-c3ccccn3)nc3ccccc23)cc1 [Compound 12]
Type II | 427 | 391 | – | – | – | – | COc1ccc(NC(=O)c2cc(-c3ccncc3)nc3ccccc23)cc1 [Compound 5]
